According to ChEMBL document CHEMBL1132978, “Artificial neural network applied to prediction of fluorquinolone antibacterial activity by topological methods” (2000):
Values after ≈ are worked out from the molar mass of the structure shown.

system: Escherichia coli; assay: Minimum inhibitory concentration against Escherichia coli; format: functional

MIC [µg/mL]	Structure (SMILES)
0.013 (≈ 0.0344 µM)	CC(N)C1CCN(c2c(F)cc3c(=O)c(C(=O)O)cn(C4CC4)c3c2F)C1 (stereo unspecified)
3.1 (≈ 6.75 µM)	CC(C)CN1CCN(c2cc3c(cc2F)c(=O)c(C(=O)O)cn3-c2ccc(F)cc2F)CC1
0.2 (≈ 0.479 µM)	CN1CCN(c2cc3c(cc2F)c(=O)c(C(=O)O)cn3-c2ccc(F)cc2F)CC1
0.1 (≈ 0.257 µM)	CCNCC1CCN(c2cc3c(c(N)c2F)c(=O)c(C(=O)O)cn3C2CC2)C1 (stereo unspecified)
0.1 (≈ 0.266 µM)	COc1c(N2CCCC(N)C2)c(F)cc2c(=O)c(C(=O)O)cn(C3CC3)c12 (stereo unspecified)
0.1 (≈ 0.277 µM)	CC1CN(c2cc3c(cc2F)c(=O)c(C(=O)O)cn3C(C)(C)C)CCN1 (stereo unspecified)
0.05 (≈ 0.123 µM)	CCNCC1CCN(c2c(F)c(N)c3c(=O)c(C(=O)O)cn(C4CC4)c3c2F)C1 (stereo unspecified)
0.05 (≈ 0.145 µM)	NCC1CCN(c2cc3c(cc2F)c(=O)c(C(=O)O)cn3C2CC2)C1 (stereo unspecified)
0.1 (≈ 0.248 µM)	CCNC(C)C1CCN(c2cc3c(c(N)c2F)c(=O)c(C(=O)O)cn3C2CC2)C1 (stereo unspecified)
0.2 (≈ 0.533 µM)	CCN1CCN(c2cc3c(cc2F)c(=O)c(C(=O)O)cn3C(C)(C)C)CC1
1.6 (≈ 4.43 µM)	CC1CN(c2cc3c(cc2F)c(=O)c(C(=O)O)cn3C(C)C)CC(C)N1 (stereo unspecified)
0.8 (≈ 1.74 µM)	CCCCN1CCN(c2cc3c(cc2F)c(=O)c(C(=O)O)cn3-c2ccc(F)cc2F)CC1
0.4 (≈ 1.15 µM)	CCn1cc(C(=O)O)c(=O)c2cc(F)c(N3CC(C)NC(C)C3)cc21 (stereo unspecified)
0.2 (≈ 0.533 µM)	CC1CN(c2cc3c(cc2F)c(=O)c(C(=O)O)cn3C(C)(C)C)CC(C)N1 (stereo unspecified)
0.4 (≈ 0.927 µM)	CCC1CN(c2cc3c(cc2F)c(=O)c(C(=O)O)cn3-c2ccc(F)cc2F)CCN1 (stereo unspecified)
0.1 (≈ 0.288 µM)	CCN1CCN(c2cc3c(cc2F)c(=O)c(C(=O)O)cn3CC)CC1
0.05 (≈ 0.127 µM)	NCC1CCCN(c2c(F)c(N)c3c(=O)c(C(=O)O)cn(C4CC4)c3c2F)C1 (stereo unspecified)

MIC [µg/mL]	Structure (SMILES)
3.1 (≈ 8.58 µM)	CNCC1CCN(c2cc3c(cc2F)c(=O)c(C(=O)O)cn3C(C)C)C1 (stereo unspecified)
0.2 (≈ 0.495 µM)	COc1c(N2CC(C)NC(C)C2)c(F)c(N)c2c(=O)c(C(=O)O)cn(C3CC3)c12 (stereo unspecified)
0.2 (≈ 0.6 µM)	CCn1cc(C(=O)O)c(=O)c2cc(F)c(N3CCNC(C)C3)cc21 (stereo unspecified)
0.1 (≈ 0.277 µM)	CNCC1CCN(c2nc3c(cc2F)c(=O)c(C(=O)O)cn3C2CC2)C1 (stereo unspecified)
0.4 (≈ 0.906 µM)	CCNCC1CCN(c2c(F)cc3c(=O)c(C(=O)O)cn(C4CC4)c3c2C(F)(F)F)C1 (stereo unspecified)
0.2 (≈ 0.51 µM)	CC1(CN)CCN(c2c(F)c(N)c3c(=O)c(C(=O)O)cn(C4CC4)c3c2F)C1 (stereo unspecified)
0.2 (≈ 0.516 µM)	CC(C)CN1CCN(c2cc3c(cc2F)c(=O)c(C(=O)O)cn3C2CC2)CC1
0.2 (≈ 0.576 µM)	CC(C)(C)n1cc(C(=O)O)c(=O)c2cc(F)c(N3CCC(N)C3)cc21 (stereo unspecified)
0.2 (≈ 0.514 µM)	COc1c(N2CCCC(CN)C2)c(F)cc2c(=O)c(C(=O)O)cn(C3CC3)c12 (stereo unspecified)
0.025 (≈ 0.0664 µM)	COc1c(N2CCC(N)C2)c(F)c(N)c2c(=O)c(C(=O)O)cn(C3CC3)c12 (stereo unspecified)
0.013 (≈ 0.0355 µM)	NC1CCN(c2c(F)cc3c(=O)c(C(=O)O)cn(C4CC4)c3c2Cl)C1 (stereo unspecified) [CLINAFLOXACIN]
0.05 (≈ 0.139 µM)	CCN1CCN(c2cc3c(cc2F)c(=O)c(C(=O)O)cn3C2CC2)CC1 [ENROFLOXACIN]
0.05 (≈ 0.133 µM)	COc1c(N2CCNC(C)C2)c(F)cc2c(=O)c(C(=O)O)cn(C3CC3)c12 (stereo unspecified) [GATIFLOXACIN]
0.1 (≈ 0.264 µM)	CCNCC1CCN(c2c(F)cc3c(=O)c(C(=O)O)cn(CC)c3c2F)C1 (stereo unspecified) [MERAFLOXACIN]
0.05 (≈ 0.128 µM)	CCNCC1CCN(c2c(F)cc3c(=O)c(C(=O)O)cn(C4CC4)c3c2F)C1 (stereo unspecified) [PD-117558]
0.1 (≈ 0.24 µM)	CC1CN(c2cc3c(cc2F)c(=O)c(C(=O)O)cn3-c2ccc(F)cc2F)CCN1 (stereo unspecified) [TEMAFLOXACIN]
0.025 (≈ 0.0618 µM)	NC1CCN(c2nc3c(cc2F)c(=O)c(C(=O)O)cn3-c2ccc(F)cc2F)C1 (stereo unspecified) [TOSUFLOXACIN]

Structure (SMILES)	MIC [µg/mL]
O=C(O)c1cn(C2CCC2)c2cc(N3CCNCC3)c(F)cc2c1=O	0.4 (≈ 1.16 µM)
CCn1cc(C(=O)O)c(=O)c2cc(F)c(N3CCNCC3)cc21 [NORFLOXACIN]	0.1 (≈ 0.313 µM)
